For data set [1], the system named is PC-3 cells. Description: Polyamine assays: intracellular polyamine levels by HPLC. The format is cell-based, human. As to the method:
One h later the medium was aspirated and the cells were rinsed with cold HBSS. Three plates were treated with dilute trypsin to release the cells from the plate and provide a single cell suspension. The viability of the cells and the number of cells per plate were determined by trypan blue exclusion and counting with the aid of a hemocytometer. […] The other three plates were extracted with 0.4N perchloric acid and the polyamines were measured by fluorescence following postcolumn derivatization with o-phthalaldehyde following separation by the reverse phase ion-pair high performance liquid chromatography procedure of Wagner et al., J. Chomatogr., 227: 349-368, 1982.
In Table 2 are listed the values for the triplicate assays of the concentrations of polyamine observed in nontreated cells, cells treated with 1-(4-aminobutyl) aziridine for 1 h, cells pretreated for 48 h with 1 mM difluoromethylornithine and then incubated in drug free medium for 1 h, or cells pretreated for 48 h with difluoromethylornithine, rinsed free of difluoromethylornithine, and then incubated with 25 μM 1-(4-aminobutyl)aziridine for 1 h. All groups had cell viabilities greater than 95% and cell numbers were 4.9±0.6 (SE), 4.9±0.7, 4.8±0.4, and 4.6±0.4×10^6 cells for the control, 1-(4-aminobutyl) aziridine, difluoromethylornithine, and difluoromethylornithine+1-(4-aminobutyl) aziridine groups, respectively. The apparent amount of 1-(4-aminobutyl) aziridine in the difluoromethylornithine-treated cells was 3.7 times that of the 1-(4-aminobutyl) aziridine-only-treated cells. No N^8 -acetylspermidine, acetylputrescine, or cadaverine was detected in any group. A peak was detected at a wavelength of 254 nm in the difluoromethylornithine treatment groups that corresponds to the retention time of decarboxylated S-adenosylmethionine.
^a PC-3 cells were incubated with or without 1 mM DFMO for 48 h. Cell
were then rinsed free of DFMO and incubated for 1 h with 25 μM AZP. Th
cells were washed free of AZP by three rinses of HBSS. With one set of
triplicate plates, the cells were resuspended and counted by hemocytomete
and viability was determined by trypan dye exclusion (viability > 95%).
Another set triplicate plates was extracted with icecold perchloric acid
and filtered and the polyamine concentrations were determined by HPLC.
^b Mean ± SE for a triplicate assay. Histamine is included as a […]

Data set [2] deals with human prostate cancer cell line PC-3. Description: cells. The format is cell-based. As to the method: Aziridinyl putrescine 1-(4-aminobutyl) aziridine was synthesized using the method as described by Piper, et al., J. Med. Chem. 12: 236-243 (1968). Cells of the human prostate cancer cell line PC-3 were used.
10^3 PC-3 human cells were plated in RPMI 1640 with 10% FCS/3 ml in 60 mm^2 petri dishes. The cell plates were incubated either with, or without difluoromethylornithine for 48 hours. This was followed by aspiration, and replacement with a medium containing either no additives, 50 uM 1-(4-aminobutyl) aziridine, 1 mM putrescine, or both 50 uM 1-(4-aminobutyl) aziridine and 1 mM putrescine. The media were aspirated after 1 hour, and replaced with a drug free medium. Incubation continued for 5 days.
*Represents mean number of colonies ± one standard deviation of
triplicate assay. Number in parenthesis is percent of control.

The test system of data set [3] is normal rat prostate. In words: In vivo antiprostatic activity, prostate wet weight. Particulars: Copenhagen rats. As to the method:
1-(4-aminobutyl) aziridine, difluoromethylornithine, and a combination of 1-(4-aminobutyl) aziridine and difluoromethylornithine were tested in vivo for antiprostatic activity using Copenhagen rats. The normal rat prostate is often used as a model or control for drugs which are suspected of having antiprostatic cancer activity. Sloan, et al., Cancer Chemother. Rep. 59: 185-194 (1975). 1-(4-aminobutyl) aziridine, difluoromethylornithine, and a combination of 1-(4-aminobutyl) aziridine and difluoromethylornithine were administered to twenty-eight (28) Copenhagen rats for 14 days. 1-(4-aminobutyl) aziridine was administered by an infusion mini-pump implanted intraperitoneally.
Difluoromethylornithine was administered orally. The 1-(4-aminobutyl) aziridine was delivered at a rate of 2 mg/kg/day. A similar amount of difluoromethylornithine was administered orally on a daily basis. Before loading the infusion pump, the pH of 1-(4-aminobutyl) aziridine was adjusted to 7.5 with hydrochloric acid. The pump rate was 0.5 u./hr.
The prostates of the twenty-eight (28) subjects were removed, freed of fat and weighed to the nearest milligram.

Data set [4] can be described thus: Alkylating activity with 4-(p-nitrobenzyl)pyridine. Particulars: 100 nmol in 5.0 ml, 0.1M acetate, PH 4.5, 37° C., 2 h. As to the method: The preparation of 1-(4-aminobutyl) aziridine from 1,4-diaminobutane (putrescine) was performed by the three-step synthetic method reported by Piper et al. supra.
1-(4-aminobutyl) aziridine (100 nmol) produced an absorbance increase of 0.7 with 4-(p-nitrobenzyl)pyridine in 5.0 ml when incubated in 0.1M acetate, PH 4.5, at 37° C. for 2 h. […] The retention times were: putrescine, 19.6 min; 1-(4-aminobutyl) aziridine, 21.1 min; and histamine, 21.8 min.

Setting [5] is: PC-3, ±1 mM DFMO 48 h, then ±25 μM AZP 1 h, mean ± SE.
Where [6] appears, read: 14 days, AZP 2 mg/kg/day by intraperitoneal infusion mini-pump, DFMO similar amount orally.

1 compound from patent publication US4925835A, “Aziridinyl putrescine containing compositions and their uses in treating prostate cancer” (priority 1987, dated 1990) can be followed below.

For `NCCCCN1CC1` [AZP, 1-(4-aminobutyl) aziridine], in data set [1] (25 μM AZP 1 h, 1 mM DFMO 48 h pretreatment), the “Apparent amount of AZP in DFMO-treated cells relative to AZP-only-treated cells” value was 3.7 times. In data set [1] (PC-3, ±1 mM DFMO 48 h, then 25 μM AZP 1 h, mean ± SE), the “Polyamine levels: AZP” value was 115 ± 32 pmol/10^6. Moreover, the “Cell numbers at end of treatment” value in data set [1] (PC-3, ±1 mM DFMO 48 h, then ±25 μM AZP 1 h, SE) is reported as 4.9±0.7 ×10^6 cells. Further, in data set [1] (setting [5]), the “Polyamine levels: Hist (histamine, nonpolyamine control)” value is given as 86 ± 25 pmol/10^6; the “Polyamine levels: NaSpm (N-acetylspermine)” value turned out to be 125 ± 28 pmol/10^6; the “Polyamine levels: PUT (putrescine)” value is on record as 2520 ± 170 pmol/10^6; the “Polyamine levels: Spd (spermidine)” value was found to be 2884 ± 100 pmol/10^6. Also, the “Polyamine levels: Spm (spermine)” value in data set [1] (setting [5]) is listed as 3604 ± 323 pmol/10^6. Moreover, in data set [2] (Homo sapiens, PC-3, read-out: Clonogenic survivors, percent of control), the activity at 50 µM is 36%. Besides, in data set [2] (Homo sapiens, PC-3, read-out: Inhibition of proliferation of human prostate cancer cells in culture, AZP at 50 uM, from Table 1), the inhibition at 50 µM is roughly 64%. The “Clonogenic survivors (mean number of colonies ± one standard deviation)” value in data set [2] (PC-3, 48 h with or without DFMO, then 1 h with 50 uM AZP and/or 1 mM putrescine, 5 days drug free) is reported as 210 ± 30 colonies. Further, in data set [3] (2 mg/kg/day over a fourteen day period), the “Reduction of the size of the normal ventral prostate” value is “approximately 67%”. In addition, in data set [3] (2 mg/kg/day, 14 days), the “Animal toxicity (weight or fur loss, poor posture)” value is reported as “no evidence of animal toxicity” and the “Organ toxicity on examination at sacrifice (liver, spleen, intestine, kidneys)” value is recorded as “no other organs, e.g., liver, spleen, intestine, kidneys, demonstrated any evidence of toxicity”. Moreover, the “Effect on prostate size (in words)” value in data set [3] (14 days) is “significantly decreased the size of the normal ventral prostates”. For the same compound, in data set [3] (setting [6]), the “Dorsal Lateral Prostate, milligram wet weight (SEM)” value came out at 474 ± 39 milligram and the “Ventral Prostate, milligram wet weight (SEM)” value came to 378 ± 30 milligram. Also, in data set [4], the “Absorbance increase with 4-(p-nitrobenzyl)pyridine (alkylating activity)” value came out at 0.7.
